Measurements reported in PubChem BioAssay AID2060511 (Molecular Pharmacology Branch, DTP, NCI, 2025).

System: 422866-222-R5-J1-PDC spheroids with HUVEC/MSC, viability
Assay: Anticancer human tumor 422866-222-R5-J1-PDC patient-derived pancreatic adenocarcinoma cell line growth inhibition [GQUAD]
Settings: for IC50: curve of first compound; for viability, T/C: stronger effect = lower value
In short: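 Tumor cells were grown as complex spheroids with HUVEC endothelial cells and mesenchymal stem cells as stroma. G-quadruplex stabilizers were combined with targeted agents over half-log dilutions from near the clinical Cmax, or from 10 microM.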

[1] = second compound 0.0316 µM, first compound 0.0316 µM
[2] = second compound 0.0316 µM, first compound 0.316 µM
[3] = second compound 0.1 µM, first compound 0.0316 µM
[4] = second compound 0.1 µM, first compound 0.316 µM
[5] = second compound 0.316 µM, first compound 0.0316 µM
[6] = second compound 0.316 µM, first compound 0.316 µM
[7] = second compound 1 µM, first compound 0.0316 µM
[8] = second compound 1 µM, first compound 0.316 µM
[9] = second compound 3.16 µM, first compound 0.0316 µM
[10] = second compound 3.16 µM, first compound 0.316 µM
[11] = second compound 10 µM, first compound 0.0316 µM
[12] = second compound 10 µM, first compound 0.316 µM
[13] = second compound 0.0316 µM, first compound 0.1 µM
[14] = second compound 0.0316 µM, first compound 1 µM
[15] = second compound 0.0316 µM, first compound 3.16 µM
[16] = second compound 0.0316 µM, first compound 10 µM
[17] = second compound 0.1 µM, first compound 0.1 µM
[18] = second compound 0.1 µM, first compound 1 µM
[19] = second compound 0.1 µM, first compound 3.16 µM
[20] = second compound 0.1 µM, first compound 10 µM
[21] = second compound 0.316 µM, first compound 0.1 µM
[22] = second compound 0.316 µM, first compound 1 µM
[23] = second compound 0.316 µM, first compound 3.16 µM
[24] = second compound 0.316 µM, first compound 10 µM
[25] = second compound 1 µM, first compound 0.1 µM
[26] = second compound 1 µM, first compound 1 µM
[27] = second compound 1 µM, first compound 3.16 µM
[28] = second compound 1 µM, first compound 10 µM
[29] = second compound 3.16 µM, first compound 0.1 µM
[30] = second compound 3.16 µM, first compound 1 µM
[31] = second compound 3.16 µM, first compound 3.16 µM
[32] = second compound 3.16 µM, first compound 10 µM
[33] = second compound 10 µM, first compound 0.1 µM
[34] = second compound 10 µM, first compound 1 µM
[35] = second compound 10 µM, first compound 3.16 µM
[36] = second compound 10 µM, first compound 10 µM
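Also: spheroids exposed to compounds for seven days before reading.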
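For viability, T/C in this document: percent viability relative to DMSO vehicle control taken as 100%.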

SMILES: Cn1ncnc1[C@H]1c2n[nH]c(=O)c3cc(F)cc(c23)N[C@@H]1c1ccc(F)cc1 + Cc1[nH]c2ccc(F)cc2c1-c1nc2c3cccnc3c3ncccc3c2[nH]1
- IC50 (second compound 0.0316 µM): > 316 nM
- IC50 (second compound 0.1 µM): > 316 nM
- IC50 (second compound 0.316 µM): > 316 nM
- IC50 (second compound 1 µM): > 316 nM
- IC50 (second compound 3.16 µM): > 316 nM
- IC50 (second compound 10 µM): > 316 nM
- viability, T/C (second compound 0.0316 µM, first compound 0.000999 µM): 92.4%
- viability, T/C (second compound 0.0316 µM, first compound 0.00316 µM): 92.3%
- viability, T/C (second compound 0.0316 µM, first compound 0.00999 µM): 105%
- viability, T/C [1]: 91.8%
- viability, T/C (second compound 0.0316 µM, first compound 0.0999 µM): 86.5%
- viability, T/C [2]: 81.9%
- viability, T/C (second compound 0.1 µM, first compound 0.000999 µM): 99.5%
- viability, T/C (second compound 0.1 µM, first compound 0.00316 µM): 102%
- viability, T/C (second compound 0.1 µM, first compound 0.00999 µM): 102%
- viability, T/C [3]: 89.5%
- viability, T/C (second compound 0.1 µM, first compound 0.0999 µM): 97.3%
- viability, T/C [4]: 86.8%
- viability, T/C (second compound 0.316 µM, first compound 0.000999 µM): 105%
- viability, T/C (second compound 0.316 µM, first compound 0.00316 µM): 114%
- viability, T/C (second compound 0.316 µM, first compound 0.00999 µM): 83.2%
- viability, T/C [5]: 91.2%
- viability, T/C (second compound 0.316 µM, first compound 0.0999 µM): 91.4%
- viability, T/C [6]: 97.3%
- viability, T/C (second compound 1 µM, first compound 0.000999 µM): 89.6%
- viability, T/C (second compound 1 µM, first compound 0.00316 µM): 109%
- viability, T/C (second compound 1 µM, first compound 0.00999 µM): 104%
- viability, T/C [7]: 108%
- viability, T/C (second compound 1 µM, first compound 0.0999 µM): 94.3%
- viability, T/C [8]: 80.8%
- viability, T/C (second compound 3.16 µM, first compound 0.000999 µM): 93.1%
- viability, T/C (second compound 3.16 µM, first compound 0.00316 µM): 82.8%
- viability, T/C (second compound 3.16 µM, first compound 0.00999 µM): 80.4%
- viability, T/C [9]: 78.8%
- viability, T/C (second compound 3.16 µM, first compound 0.0999 µM): 94.3%
- viability, T/C [10]: 81.9%
- viability, T/C (second compound 10 µM, first compound 0.000999 µM): 87.5%
- viability, T/C (second compound 10 µM, first compound 0.00316 µM): 92.7%
- viability, T/C (second compound 10 µM, first compound 0.00999 µM): 87%
- viability, T/C [11]: 97.7%
- viability, T/C (second compound 10 µM, first compound 0.0999 µM): 81.1%
- viability, T/C [12]: 71.1%

SMILES: CC1COCCN1c1cc(-c2ccnn2C)c2ccnc(-c3ccn[nH]3)c2n1 (stereo unspecified) + Cc1[nH]c2ccc(F)cc2c1-c1nc2c3cccnc3c3ncccc3c2[nH]1
- IC50 (second compound 0.0316 µM): > 10000 nM
- IC50 (second compound 0.1 µM): > 10000 nM
- IC50 (second compound 0.316 µM): > 10000 nM
- IC50 (second compound 1 µM): 31.6 nM
- IC50 (second compound 3.16 µM): 31.6 nM
- IC50 (second compound 10 µM): 31.6 nM
- viability, T/C [1]: 84.4%
- viability, T/C [13]: 58.8%
- viability, T/C [2]: 46.1%
- viability, T/C [14]: 42%
- viability, T/C [15]: 52.8%
- viability, T/C [16]: 87.2%
- viability, T/C [3]: 83.3%
- viability, T/C [17]: 64.9%
- viability, T/C [4]: 41.6%
- viability, T/C [18]: 33.7%
- viability, T/C [19]: 50%
- viability, T/C [20]: 93.7%
- viability, T/C [5]: 101%
- viability, T/C [21]: 58.1%
- viability, T/C [6]: 45.3%
- viability, T/C [22]: 36.8%
- viability, T/C [23]: 66%
- viability, T/C [24]: 75%
- viability, T/C [7]: 80.9%
- viability, T/C [25]: 51.9%
- viability, T/C [8]: 41.1%
- viability, T/C [26]: 37.5%
- viability, T/C [27]: 75.3%
- viability, T/C [28]: 86.6%
- viability, T/C [9]: 60.6%
- viability, T/C [29]: 55.9%
- viability, T/C [10]: 41.5%
- viability, T/C [30]: 42.6%
- viability, T/C [31]: 73.2%
- viability, T/C [32]: 91.5%
- viability, T/C [11]: 62.8%
- viability, T/C [33]: 57.8%
- viability, T/C [12]: 43.1%
- viability, T/C [34]: 47.1%
- viability, T/C [35]: 82.8%
- viability, T/C [36]: 84.2%

SMILES: C=CCn1c(=O)c2cnc(Nc3ccc(N4CCN(C)CC4)cc3)nc2n1-c1cccc(C(C)(C)O)n1 + Cc1cnc(CNC(=O)c2c(=O)c3ccc(N4CCCN(C)CC4)nc3n3c2sc2ccccc23)cn1
- IC50 (second compound 0.0316 µM): 310 nM
- IC50 (second compound 0.1 µM): 545 nM
- IC50 (second compound 0.316 µM): 1320 nM
- IC50 (second compound 1 µM): 2270 nM
- IC50 (second compound 3.16 µM): 3240 nM
- IC50 (second compound 10 µM): 2780 nM
- viability, T/C [1]: 86.8%
- viability, T/C [13]: 70%
- viability, T/C [2]: 51.6%
- viability, T/C [14]: 35.2%
- viability, T/C [15]: 29.1%
- viability, T/C [16]: 34.2%
- viability, T/C [3]: 89.2%
- viability, T/C [17]: 71.9%
- viability, T/C [4]: 54.1%
- viability, T/C [18]: 45.5%
- viability, T/C [19]: 38.5%
- viability, T/C [20]: 36.7%
- viability, T/C [5]: 85%
- viability, T/C [21]: 80.2%
- viability, T/C [6]: 63.5%
- viability, T/C [22]: 52.4%
- viability, T/C [23]: 43.6%
- viability, T/C [24]: 34.2%
- viability, T/C [7]: 74.7%
- viability, T/C [25]: 74.2%
- viability, T/C [8]: 64.8%
- viability, T/C [26]: 57.3%
- viability, T/C [27]: 46.2%
- viability, T/C [28]: 44.8%
- viability, T/C [9]: 82.8%
- viability, T/C [29]: 64.5%
- viability, T/C [10]: 65.5%
- viability, T/C [30]: 62.4%
- viability, T/C [31]: 51.4%
- viability, T/C [32]: 39.6%
- viability, T/C [11]: 72.9%
- viability, T/C [33]: 73.4%
- viability, T/C [12]: 70.8%
- viability, T/C [34]: 60.8%
- viability, T/C [35]: 49%
- viability, T/C [36]: 42.3%
